Test results: patent US20080081284A1, “OPTICAL INFORMATION RECORDING MEDIUM” (FUJIFILM Corporation, priority 2006, published 2008)

experiment: Evaluation of light fastness of dye film; type: physicochemical; details: residual dye ratio at absorption λmax 48 hours after Xe light irradiation; dye film on glass plate
Method: Dye-containing coating liquids equal to those of Examples 1 to 3, and Comparative Examples 1 to 4 were prepared, and each coating liquid was applied to a 1.1-mm-thick glass plate by a spin coating method under conditions of 23° C. and 50% RH while changing the rotation rate within a range of 500 to 1,000 rpm. The glass plate with the dye film was stored for 24 hours under conditions of 23° C. and 50% RH, and then subjected to a light fastness test using a merry-go-round-type light fastness tester (Cell Tester Model III manufactured by Eagle Engineering, equipped with WG320 Filter manufactured by Schott). The absorption spectrum of the dye film was measured using UV-1600PC manufactured by SHIMADZU immediately before the light fastness test and 48 hours after the light fastness test, and the change of the absorbancy at the maximum absorption wavelength was evaluated.

| SMILES | Light fastness of dye film |
| --- | --- |
| Cn1nc(C(C)(C)C)c(N=Nc2c(C#N)cnn2-c2cc(C(=O)O)cc(C(=O)O)c2)c1N [Compound (A-1)] | Good (evaluated as “Good” when the ratio was 70% or more and less than 85%) |
| Cc1nn2nc(C(C)(C)C)c(/N=N/c3c(C#N)cnn3-c3cc(C(=O)O)cc(C(=O)O)c3)c2n1C [Compound (A-7)] | Excellent (Evaluated as “Excellent” when the residual dye ratio was 85% or more at the absorption λmax 48 hours after the irradiation with an Xe light) |
| CCCCC(CC)COC(=O)Nc1ccc(-c2nn3nc(C(C)(C)C)c(/N=N/c4c(C#N)cnn4-c4cc(C(=O)O)cc(C(=O)O)c4)c3[nH]2)cc1 (stereo not shown) [Compound (C)] | Fair (evaluated as “Fair” when the ratio was 60% or more and less than 70%) |
| Cc1n[nH]c2c(/N=N/c3c(C#N)c(C(C)(C)C)nn3C)c(C(C)(C)C)nn12 [Compound (D)] | Fair (evaluated as “Fair” when the ratio was 60% or more and less than 70%) |
